Literature values, collected in patent publication US8841476B2, “Preparation of crystalline ezatiostat hydrochloride ansolvate form D” (Telik, Inc., priority 2010, dated 2014).
Read-outs that look alike come from different tables or passages of the source.

What was measured:
[1] = in vitro
[2] = tested on: hematopoietic progenitor cells in normal human peripheral blood
[3] = ezatiostat hydrochloride in a liposomal injectable formulation, MDS trial, Raza et al. 2009
[4] = tested on: HL-60 promyelocytic leukemia cells; conditions: in vitro
[5] = in vivo

CCOC(=O)[C@@H](N)CCC(=O)N[C@@H](CSCc1ccccc1)C(=O)N[C@@H](C(=O)OCC)c1ccccc1 [Ezatiostat]
potentiation of the activity of cytotoxic agents [1]: potentiate the activity of cytotoxic agents | white blood cell production (animals in which white blood cells were depleted by treatment with cisplatin or fluorouracil): increase white blood cell production | white blood cell production (normal animals): increase white blood cell production | colony formation of hematopoietic progenitor cells [2]: stimulate colony formation of all three lineages | hematologic improvement [3]: multi-lineage hematologic improvement | tolerability [3]: well tolerated | differentiation of HL-60 promyelocytic leukemia cells [4]: induce the differentiation | potentiation of the activity of cytotoxic agents [5]: potentiate the activity of cytotoxic agents
